According to ChEMBL document CHEMBL1806462, “Discovery of pyrrolo[2,1-f][1,2,4]triazine C6-ketones as potent, orally active p38α MAP kinase inhibitors” (Bioorg Med Chem Lett, 2011):

How the values were obtained:
Rattus norvegicus = test: AUC (0 to 4 hrs) in rat at 10 mg/kg, po; format: ADME, organism-based, Plasma; design: time < 4 hr, dose 10 mg/kg, route oral; details: in vivo
[1] = Cmax in rat at 10 mg/kg, po; format: ADME, organism-based; design: dose 10 mg/kg, route oral; details: in vivo
[2] = Plasma concentration in rat at 10 mg/kg, po after 4 hrs; format: ADME, organism-based; design: dose 10 mg/kg, route oral
Liver microsomes = test: Clearance in human liver microsomes; format: ADME, Microsome

SMILES | AUC (Rattus norvegicus) [ng·h/mL] | Cmax [1] [ng/mL] | concentration at 4 h [2] [ng/mL] | CL (Liver microsomes) [nmol/min/mg]
Cc1ccc(C(=O)NC2CC2)cc1Nc1ncnn2cc(C(=O)c3ccccc3)c(C)c12 | 2300 | 752 | 550 | 0.08
COC(=O)NC(=O)c1ccc(C)c(Nc2ncnn3cc(C(=O)c4ccccc4)c(C)c23)c1 | – | – | – | 0.16
